In ChEMBL document CHEMBL3112457, “Inhibition of hypoxia-inducible factor prolyl hydroxylase domain oxygen sensors: tricking the body into mounting orchestrated survival and repair responses” (J Med Chem, 2013):

Key:
Egl nine homolog 1 [1] = target: T1, Egl nine homolog 1 (Homo sapiens, UniProt Q9GZT9); test: Inhibition of PHD2 (unknown origin) using P564 HIFlalpha as substrate after 1 hr by TR-FRET assay
Target sequence in this assay (Q9GZT9 whole entry): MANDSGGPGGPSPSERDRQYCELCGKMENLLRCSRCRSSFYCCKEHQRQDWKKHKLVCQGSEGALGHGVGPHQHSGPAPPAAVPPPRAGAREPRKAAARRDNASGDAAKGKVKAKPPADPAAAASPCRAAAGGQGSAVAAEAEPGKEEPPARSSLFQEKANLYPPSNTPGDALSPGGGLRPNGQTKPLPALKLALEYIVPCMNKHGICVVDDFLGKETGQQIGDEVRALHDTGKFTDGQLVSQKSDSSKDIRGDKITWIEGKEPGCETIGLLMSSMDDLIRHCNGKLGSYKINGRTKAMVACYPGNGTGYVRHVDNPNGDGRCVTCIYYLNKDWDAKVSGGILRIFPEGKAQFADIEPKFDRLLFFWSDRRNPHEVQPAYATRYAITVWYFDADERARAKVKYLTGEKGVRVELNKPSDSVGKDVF

Egl nine homolog 1 [2] = target: T1, Egl nine homolog 1; test: Inhibition of HIF-PH2 (unknown origin) expressed in insect Hi5 cells using [methoxycoumarin]-DLDLEALAPYIPADDDFQL-amide as substrate at 22 uM by [14]CO2 capture assay relative to control; details: BTI-TN-5B1-4
Target sequence in this assay (Q9GZT9 2-426 limits assumed): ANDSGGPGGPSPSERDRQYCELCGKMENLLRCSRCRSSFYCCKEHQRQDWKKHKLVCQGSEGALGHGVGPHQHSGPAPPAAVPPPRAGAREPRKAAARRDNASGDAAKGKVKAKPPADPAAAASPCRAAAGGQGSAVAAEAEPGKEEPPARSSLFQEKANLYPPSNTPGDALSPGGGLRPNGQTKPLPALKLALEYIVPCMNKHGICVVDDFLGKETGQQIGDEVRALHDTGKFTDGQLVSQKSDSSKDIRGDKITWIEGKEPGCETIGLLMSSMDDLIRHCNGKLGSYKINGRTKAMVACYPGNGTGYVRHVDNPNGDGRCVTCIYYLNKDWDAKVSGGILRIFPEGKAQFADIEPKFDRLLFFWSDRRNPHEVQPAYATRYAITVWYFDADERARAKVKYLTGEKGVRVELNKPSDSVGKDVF

Egl nine homolog 1 [3] = target: T1, Egl nine homolog 1; test: Inhibition of FLAG-tagged full length PHD2 (unknown origin) expressed in Sf9 cells using HIF-1alpha peptide as substrate preincubated for 30 mins followed by substrate addition measured after 2 hrs by HTRF assay in presence of 2-oxoglutarate
Target sequence in this assay (Q9GZT9 whole entry): as the sequence (Q9GZT9 whole entry) above

[4] = Inhibition of prolyl hydroxylase (unknown origin) using biotin-labeled DLDLEMLAPYIPMDDDFQL as substrate after 60 mins by FRET assay; parameters: species or system Homo sapiens
[5] = Inhibition of prolyl hydroxylase in human Hep3B cells assessed as stimulation of EPO release at 100 uM after 24 hrs by ELISA relative to control; format: cell-based, Hep 3B2
Egl nine homolog 1 [6] = target: T1, Egl nine homolog 1; test: Inhibition of HIF-PH2 (unknown origin) expressed in insect Hi5 cells using [methoxycoumarin]-DLDLEALAPYIPADDDFQL-amide as substrate at 7.4 uM by [14]CO2 capture assay relative to control; details: BTI-TN-5B1-4
Target sequence in this assay (Q9GZT9 2-426 limits assumed): as the sequence (Q9GZT9 2-426 limits assumed) above

Prolyl hydroxylase EGLN3 [7] = target: T2, Prolyl hydroxylase EGLN3 (Homo sapiens, UniProt Q9H6Z9); test: Inhibition of PHD3 in human Hep3B cells assessed as stimulation of EPO release after 48 hrs by ELISA; format: cell-based, Hep 3B2
Prolyl hydroxylase EGLN3 [8] = target: T2, Prolyl hydroxylase EGLN3; test: Inhibition of 6His-tagged PHD3 (1 to 239) (unknown origin)-mediated Cy5CODD hydroxylation expressed in Escherichia coli preincubated for 3 mins followed by substrate addition measured after 30 mins
Mus musculus = test: Suppression of TNBS-induced colitis in mouse assessed as increase in hematocrit at 1 to 5 mg/kg, po after 7 days relative to control; format: functional; details: dose mg/kg 1-5
Egl nine homolog 1 [9] = target: T1, Egl nine homolog 1; test: Inhibition of PHD2 in HEK293 cells assessed as VEGF release by immunoassay; format: cell-based
Target sequence in this assay (Q9GZT9 whole entry): as the sequence (Q9GZT9 whole entry) above

Prolyl hydroxylase EGLN3 [10] = target: T2, Prolyl hydroxylase EGLN3; test: Inhibition of 6His-tagged PHD3 (1 to 239) (unknown origin)-mediated Cy5CODD hydroxylation expressed in Escherichia coli after 30 mins
Prolyl hydroxylase EGLN3 [11] = target: T2, Prolyl hydroxylase EGLN3; test: Inhibition of full length human recombinant EGLN-3 using DLDLEALAPYIPADDDFQL as substrate after 20 mins by mass spectrophotometric analysis
Egl nine homolog 1 [12] = target: T1, Egl nine homolog 1; test: Inhibition of human recombinant EGLN-1 using DLDLEALAPYIPADDDFQL as substrate after 20 mins by mass spectrophotometric analysis
Target sequence in this assay (Q9GZT9 whole entry): as above

T2 sequence (Q9H6Z9 whole entry): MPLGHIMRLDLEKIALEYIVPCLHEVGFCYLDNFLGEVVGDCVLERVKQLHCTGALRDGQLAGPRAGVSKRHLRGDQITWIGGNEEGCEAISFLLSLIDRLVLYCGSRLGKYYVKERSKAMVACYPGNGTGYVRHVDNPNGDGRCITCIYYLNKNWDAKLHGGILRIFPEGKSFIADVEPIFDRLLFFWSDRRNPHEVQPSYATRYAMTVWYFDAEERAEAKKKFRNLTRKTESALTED

For Cn1c(=O)c(C(=O)NCC(=O)O)c(O)c2ccc(-c3cccnc3)nc21, the IC50 (Egl nine homolog 1 [1]) was < 50 nM.

Compound O=C(O)CNC(=O)c1c(O)c2c(Cl)c(Cl)c(Cl)n2n(Cc2ccccc2)c1=O has an inhibition (Egl nine homolog 1 [2]) of 99%.

O=C(Cc1ccc2ccccc2c1)Nc1cnc(-n2cccn2)nc1O gave an IC50 (Egl nine homolog 1 [3]) of 0.7 nM.

For O=c1c(-c2cccnc2)c[nH]n1-c1cc(N2CCCCC2)ncn1, the IC50 [4] was < 30000 nM.

O=C(O)CNC(=O)c1c(O)cc(-c2cc(F)cc(Cl)c2)c2ncnn12 showed an EC50 [5] of 5900 nM.

Compound O=C(O)CNC(=O)c1c(O)c2cc(-c3ccc(Oc4ccccc4)cc3)ccc2oc1=O has an inhibition (Egl nine homolog 1 [6]) of 100%.

In the case of O=C(O)CCC(=O)C1=C(O)c2ccc(Cl)cc2C2(CCOCC2)C1=O, the IC50 (Egl nine homolog 1 [1]) is reported as < 100 nM.

With COc1ccc(-n2c(=O)[nH]c3cc(C(=O)NCc4ccc(Cl)cc4)ncc3c2=O)nc1OC the EC50 (Prolyl hydroxylase EGLN3 [7]) was 1000 nM and the IC50 (Prolyl hydroxylase EGLN3 [8]) was 1 nM.

For Cc1cccc(CN2CCC3(CC2)C(=O)N(c2ccc(-c4ccccc4)cc2)c2ccc(C(=O)O)cc23)n1, the IC50 (Egl nine homolog 1 [3]) was 0.7 nM.

Compound CC(C)(C)OC(=O)N1CCN(Cc2ccn(Cc3ccc(Cl)cc3)c(=O)c2O)CC1 [IZILENDUSTAT] has an Activity (Mus musculus) of 2% and an EC50 (Egl nine homolog 1 [9]) of 17000 nM.

With O=C(O)CNC(=O)c1c(O)c(C(=O)NCc2ccccc2)c(O)n(Cc2ccccc2)c1=O the EC50 (Prolyl hydroxylase EGLN3 [7]) was 1 nM.

With O=C(O)CNC(=O)c1c(O)ccc2cc(-c3ccccc3)cnc12 the IC50 (Prolyl hydroxylase EGLN3 [8]) was 1 nM.

Work on CC(C)(C)c1ccc(Cn2c(-c3c(Cl)cccc3Cl)nc(O)c(C(=O)NCC(=O)O)c2=O)cc1 yielded an IC50 (Prolyl hydroxylase EGLN3 [10]) of 0.8 nM and an EC50 (Prolyl hydroxylase EGLN3 [7]) of 400 nM.

In the case of O=C(O)CNC(=O)c1c2ncn(Cc3ccccc3)c2cc2c1ncn2Cc1ccccc1, the IC50 (Prolyl hydroxylase EGLN3 [8]) is reported as 1 nM.

With O=C(O)CNC(=O)c1c(O)c2ccc(F)cc2n(Cc2ccccc2Cl)c1=O the IC50 (Prolyl hydroxylase EGLN3 [10]) was 20 nM.

Work on N#Cc1cn(-c2c[nH]n(-c3cc(N4CC(F)(F)C4)ncn3)c2=O)nn1 yielded an IC50 [4] of 70 nM.

Compound COc1ccc(-n2c(=S)[nH]c3cc(C(=O)NCc4ccc(Cl)cc4)sc3c2=O)nc1OC has an EC50 (Prolyl hydroxylase EGLN3 [7]) of 1000 nM and an IC50 (Prolyl hydroxylase EGLN3 [8]) of 1 nM.

Work on COc1ccc(-n2c(=O)[nH]c3cc(C(=O)NCc4ccc5c(c4)OCO5)sc3c2=O)nc1OC yielded an EC50 (Prolyl hydroxylase EGLN3 [7]) of 1000 nM and an IC50 (Prolyl hydroxylase EGLN3 [8]) of 1 nM.

In the case of N#Cc1ccccc1Cn1c(=O)c(C(=O)NCC(=O)O)c(O)n(Cc2ccccc2)c1=O, the IC50 (Prolyl hydroxylase EGLN3 [10]) is reported as 0.8 nM and the EC50 (Prolyl hydroxylase EGLN3 [7]) is reported as 400 nM.

For O=C(O)CNC(=O)c1ncc(-c2ccc3ccccc3c2)cc1O, the IC50 (Prolyl hydroxylase EGLN3 [11]) was 17 nM and the IC50 (Egl nine homolog 1 [12]) was 17 nM.

With O=C(O)CNC(=O)c1c(O)c(Br)cc2c1ncn2Cc1ccccc1 the IC50 (Prolyl hydroxylase EGLN3 [8]) was 1 nM.
